From patent US20020137929A1, “1 - (3-heterocyclylphenyl) isothiourea, -isourea, -guanidine and -amidine herbicidal agents” (Intellectual Property Department, BASF Aktiengesellschaft, priority 1998, published 2002)

How the values were obtained:
CASOB (Sicklepod) = experiment: Postemergence herbicidal evaluation; type: in vivo, Cassia obtusifolia
How it was run: (§1)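 Each compound, dispersed in an acetone/water mix (50/50) carrying 0.5% TWEEN 20, is nozzle-sprayed at 40 psi on approximately two-week-old seedlings at about 0.0156–0.500 kg/ha. Plants are assessed 4–5 weeks afterward on a 0–9 scale relative to control; duplicate tests are averaged.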

GALAP (Galium) = experiment: Postemergence herbicidal evaluation; type: in vivo, Galium aparine
How it was run: as §1

ZEAMX (Corn, Field) [1] = experiment: Postemergence herbicidal evaluation; type: in vivo, Zea mays
How it was run: as §1

AMBEL (Ragweed, Common) = experiment: Preemergence herbicidal evaluation; type: in vivo, Ambrosia artemisifolia; conditions: rated 4-5 weeks after treatment
How it was run: (§2)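 Steps: mix seeds into potting soil; plant atop ~1 inch soil; spray compound in aqueous acetone (~0.0156-0.500 kg/ha equivalent); maintain in greenhouse with watering; rate visually 0-9 versus control at 4-5 weeks.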

[2] = tested on: CHEAL (Lambsquarters, Common); experiment: Preemergence herbicidal evaluation; type: in vivo, Chenopodium album; conditions: rated 4-5 weeks after treatment
How it was run: as §2

[3] = tested on: IPOHE (Morningglory, Ivyleaf); experiment: Preemergence herbicidal evaluation; type: in vivo, Ipomoea hederacea; conditions: rated 4-5 weeks after treatment
How it was run: as §2

ORYSAT (Rice, Tebonnet) = experiment: Preemergence herbicidal evaluation; type: in vivo, Oryza sativa, (L.) Tebonnet; conditions: rated 4-5 weeks after treatment
How it was run: as §2

[4] = tested on: TRZAWR (Wheat, Winter, cv Riband); experiment: Preemergence herbicidal evaluation; type: in vivo, Triticum aestivum; conditions: rated 4-5 weeks after treatment
How it was run: as §2

ZEAMX (Corn, Field) [5] = experiment: Preemergence herbicidal evaluation; type: in vivo, Zea mays; conditions: rated 4-5 weeks after treatment
How it was run: as §2

[6] = tested on: ECHORC (Watergrass (Calif.)); experiment: Preemergence weed control under flooded paddy conditions; type: in vivo, Echinochloa oryzoides; conditions: rated 3-4 weeks after treatment
How it was run: (§3)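 First, seeds or propagules go into the top 0.5 cm of silt loam; next, water is held 1.5 to 3 cm over the soil; then compound (50/50 acetone/water) is pipetted into it at about 0.0313 to 0.500 kg/ha; finally plants are rated visually 0-9 after three to four weeks.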

CYPIR (Rice Flatsedge) = experiment: as above; type: in vivo, Cyperus iria; conditions: rated 3-4 weeks after treatment
How it was run: as §3

CYPSE (Flatsedge) [7] = experiment: as above; type: in vivo, Cyperus serotinus; conditions: rated 3-4 weeks after treatment
How it was run: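 Seeds or propagules sown in silt loam kept flooded 1.5-3 cm; compounds in 50/50 acetone/water pipetted into flood water at about 0.0313 to 0.500 kg/ha. Greenhouse; visual 0-9 rating versus untreated control 3-4 weeks after treatment.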

[8] = tested on: ECHORC (Watergrass (Calif.)); experiment: Postemergence weed control under flooded paddy conditions; type: in vivo, Echinochloa oryzoides; conditions: postemergence weeds, 3-4 weeks after treatment
How it was run: (§4)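 Flood-water application, about 0.0313–0.500 kg/ha a.i. in aqueous/acetone 50/50 v/v; water depth 1.5–3 cm throughout. Weeds 3–5 cm, rice 1.5–2.5 leaf. Greenhouse; 0–9 visual rating vs control at 3–4 wk.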

CYPSE (Flatsedge) [9] = experiment: as above; type: in vivo, Cyperus serotinus; conditions: postemergence weeds, 3-4 weeks after treatment
How it was run: as §4

CCOC(=O)CN1C(=O)C(CCO)S/C1=N/c1cc(-n2c(=O)cc(C(F)(F)F)n(C)c2=O)c(F)cc1Cl (stereo not drawn) [Compound 49, Ethyl 2-{{2-chloro-5-[3,6-dihydro-3-methyl-2,6-dioxo-4-(trifluoromethyl)-1(2H)-pyrimidinyl]-4-fluorophenyl}imino}-5-(hydroxyethyl)-4-oxo-3-thiazolidineacetate]
Postemergence herbicidal rating CASOB (CASOB (Sicklepod); Rate 0.0313 kg/ha): 3.0 | Postemergence herbicidal rating CASOB (CASOB (Sicklepod); Rate 0.0625 kg/ha): 3.0 | Postemergence herbicidal rating CASOB (CASOB (Sicklepod); rate 0.0156 kg/ha): 2.0 | Postemergence herbicidal rating GALAP (GALAP (Galium); Rate 0.0313 kg/ha): 4.0 | Postemergence herbicidal rating GALAP (GALAP (Galium); Rate 0.0625 kg/ha): 4.0 | Postemergence herbicidal rating GALAP (GALAP (Galium); rate 0.0156 kg/ha): 2.0 | Postemergence herbicidal rating ZEAMX (ZEAMX (Corn, Field) [1]; Rate 0.0313 kg/ha): 5.5 | Postemergence herbicidal rating ZEAMX (ZEAMX (Corn, Field) [1]; Rate 0.0625 kg/ha): 6.0 | Postemergence herbicidal rating ZEAMX (ZEAMX (Corn, Field) [1]; rate 0.0156 kg/ha): 5.0 | Preemergence herbicidal rating AMBEL (AMBEL (Ragweed, Common); rate 0.0156 kg/ha): 0.0 | Preemergence herbicidal rating AMBEL (AMBEL (Ragweed, Common); rate 0.0313 kg/ha): 0.0 | Preemergence herbicidal rating AMBEL (AMBEL (Ragweed, Common); rate 0.0625 kg/ha): 9.0 | Preemergence herbicidal rating AMBEL (AMBEL (Ragweed, Common); rate 0.1250 kg/ha): 9.0 | Preemergence herbicidal rating AMBEL (AMBEL (Ragweed, Common); rate 0.2500 kg/ha): 9.0 | Preemergence herbicidal rating CHEAL ([2]; rate 0.0156 kg/ha): 9.0 | Preemergence herbicidal rating CHEAL ([2]; rate 0.0313 kg/ha): 9.0 | Preemergence herbicidal rating CHEAL ([2]; rate 0.0625 kg/ha): 9.0 | Preemergence herbicidal rating CHEAL ([2]; rate 0.1250 kg/ha): 9.0 | Preemergence herbicidal rating CHEAL ([2]; rate 0.2500 kg/ha): 9.0 | Preemergence herbicidal rating IPOHE ([3]; rate 0.0156 kg/ha): 0.0 | Preemergence herbicidal rating IPOHE ([3]; rate 0.0313 kg/ha): 0.0 | Preemergence herbicidal rating IPOHE ([3]; rate 0.0625 kg/ha): 2.0 | Preemergence herbicidal rating IPOHE ([3]; rate 0.1250 kg/ha): 9.0 | Preemergence herbicidal rating IPOHE ([3]; rate 0.2500 kg/ha): 9.0 | Preemergence herbicidal rating ORYSAT (ORYSAT (Rice, Tebonnet); rate 0.0156 kg/ha): 0.0 | Preemergence herbicidal rating ORYSAT (ORYSAT (Rice, Tebonnet); rate 0.0313 kg/ha): 0.0 | Preemergence herbicidal rating ORYSAT (ORYSAT (Rice, Tebonnet); rate 0.0625 kg/ha): 0.0 | Preemergence herbicidal rating ORYSAT (ORYSAT (Rice, Tebonnet); rate 0.1250 kg/ha): 5.0 | Preemergence herbicidal rating ORYSAT (ORYSAT (Rice, Tebonnet); rate 0.2500 kg/ha): 5.0 | Preemergence herbicidal rating TRZAWR ([4]; rate 0.0156 kg/ha): 0.0 | Preemergence herbicidal rating TRZAWR ([4]; rate 0.0313 kg/ha): 0.0 | Preemergence herbicidal rating TRZAWR ([4]; rate 0.0625 kg/ha): 0.0 | Preemergence herbicidal rating TRZAWR ([4]; rate 0.1250 kg/ha): 0.0 | Preemergence herbicidal rating TRZAWR ([4]; rate 0.2500 kg/ha): 2.0 | Preemergence herbicidal rating ZEAMX (ZEAMX (Corn, Field) [5]; rate 0.0156 kg/ha): 0.0 | Preemergence herbicidal rating ZEAMX (ZEAMX (Corn, Field) [5]; rate 0.0313 kg/ha): 0.0 | Preemergence herbicidal rating ZEAMX (ZEAMX (Corn, Field) [5]; rate 0.0625 kg/ha): 0.0 | Preemergence herbicidal rating ZEAMX (ZEAMX (Corn, Field) [5]; rate 0.1250 kg/ha): 3.0 | Preemergence herbicidal rating ZEAMX (ZEAMX (Corn, Field) [5]; rate 0.2500 kg/ha): 3.0 | Herbicidal rating ECHORC ([6]; 0.0313 kg/ha): 0.0 | Herbicidal rating ECHORC ([6]; 0.0625 kg/ha): 2.0 | Herbicidal rating ECHORC ([6]; 0.1250 kg/ha): 5.0 | Herbicidal rating ECHORC ([6]; 0.2500 kg/ha): 7.0 | Herbicidal rating CYPIR (CYPIR (Rice Flatsedge); 0.0313 kg/ha): 0.0 | Herbicidal rating CYPIR (CYPIR (Rice Flatsedge); 0.0625 kg/ha): 0.0 | Herbicidal rating CYPIR (CYPIR (Rice Flatsedge); 0.1250 kg/ha): 2.0 | Herbicidal rating CYPIR (CYPIR (Rice Flatsedge); 0.2500 kg/ha): 7.0 | Herbicidal rating CYPSE (CYPSE (Flatsedge) [7]; 0.0313 kg/ha): 2.0 | Herbicidal rating CYPSE (CYPSE (Flatsedge) [7]; 0.0625 kg/ha): 3.0 | Herbicidal rating CYPSE (CYPSE (Flatsedge) [7]; 0.2500 kg/ha): 4.0 | Herbicidal rating ECHORC ([8]; rate 0.0313 kg/ha): 0.0 | Herbicidal rating ECHORC ([8]; rate 0.0625 kg/ha): 2.0 | Herbicidal rating ECHORC ([8]; rate 0.1250 kg/ha): 5.0 | Herbicidal rating ECHORC ([8]; rate 0.2500 kg/ha): 7.0 | Herbicidal rating CYPSE (CYPSE (Flatsedge) [9]; rate 0.0313 kg/ha): 2.0 | Herbicidal rating CYPSE (CYPSE (Flatsedge) [9]; rate 0.0625 kg/ha): 3.0 | Herbicidal rating CYPSE (CYPSE (Flatsedge) [9]; rate 0.2500 kg/ha): 4.0
